# Laboratory results taken from ChEMBL document CHEMBL1155017, “The use of natural product scaffolds as leads in the search for trypanothione reductase inhibitors” (Bioorg Med Chem, 2008).
# Activity calls are given as the source filed them. The rule behind the calls is not given here.
# Assays:
# Trypanothione reductase [1] = molecular target: T1, Trypanothione reductase (Trypanosoma cruzi, UniProt P28593); experiment: (§1) Inhibition of Trypanosoma cruzi recombinant trypanothione reductase
# Trypanothione reductase [2] = molecular target: T1, Trypanothione reductase; experiment: Inhibition of Trypanosoma cruzi recombinant trypanothione reductase-substrate complex
# [3] = molecular target: Trypanothione reductase (Trypanosoma cruzi) (UniProt P28593); experiment: Inhibition of Trypanosoma cruzi recombinant trypanothione reductase at 85 uM
# Leishmania amazonensis [4] = experiment: Antileishmanial activity against Leishmania amazonensis MHOM/BR/76/LTB-012 promastigotes at 100 uM after 72 hrs by alamar blue assay; assay type: functional; conditions: MHOM/BR/76/LTB-012, 72 h, read-out: GI
# [5] = molecular target: Trypanothione reductase (Trypanosoma cruzi) (UniProt P28593); experiment: as §1
# Leishmania amazonensis [6] = experiment: Antileishmanial activity against Leishmania amazonensis MHOM/BR/76/LTB-012 promastigotes after 72 hrs by alamar blue assay; assay type: functional, organism-based; conditions: MHOM/BR/76/LTB-012, 72 h
# [7] = molecular target: T2, Glutathione reductase (Saccharomyces cerevisiae S288c) (UniProt P41921); experiment: Inhibition of yeast glutathione reductase at 100 uM
# T2 sequence (whole entry): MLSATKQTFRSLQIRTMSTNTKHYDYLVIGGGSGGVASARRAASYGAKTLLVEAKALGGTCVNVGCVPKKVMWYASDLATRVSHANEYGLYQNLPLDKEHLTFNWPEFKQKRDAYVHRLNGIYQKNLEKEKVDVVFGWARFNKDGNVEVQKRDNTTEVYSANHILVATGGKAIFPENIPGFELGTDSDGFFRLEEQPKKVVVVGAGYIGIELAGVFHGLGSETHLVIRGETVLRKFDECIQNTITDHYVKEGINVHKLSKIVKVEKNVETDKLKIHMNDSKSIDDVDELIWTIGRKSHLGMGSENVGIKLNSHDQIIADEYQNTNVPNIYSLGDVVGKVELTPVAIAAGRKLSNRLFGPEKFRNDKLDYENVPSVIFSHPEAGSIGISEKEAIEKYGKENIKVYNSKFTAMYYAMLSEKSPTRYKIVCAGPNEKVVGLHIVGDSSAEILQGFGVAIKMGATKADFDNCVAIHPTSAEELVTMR
# NIH3T3 = experiment: Cytotoxicity against mouse NIH3T3 cells; assay type: cell-based
# Leishmania infantum = experiment: Antileishmanial activity against Leishmania infantum promastigotes; assay type: functional, organism-based
# [8] = molecular target: Trypanothione reductase (Trypanosoma cruzi) (UniProt P28593); experiment: Inhibition of Trypanosoma cruzi recombinant trypanothione reductase at 200 uM
# [9] = molecular target: Trypanothione reductase (Trypanosoma cruzi) (UniProt P28593); experiment: Inhibition of Trypanosoma cruzi recombinant trypanothione reductase at 800 uM
# [10] = molecular target: Trypanothione reductase (Trypanosoma cruzi) (UniProt P28593); experiment: Inhibition of Trypanosoma cruzi recombinant trypanothione reductase at 400 uM
# Trypanothione reductase [11] = molecular target: T3, Trypanothione reductase (Crithidia fasciculata, UniProt P39040); experiment: Inhibition of Crithidia fasciculata trypanothione reductase-substrate complex
# Trypanothione reductase [12] = molecular target: T3, Trypanothione reductase; experiment: Inhibition of Crithidia fasciculata free trypanothione reductase
# [13] = molecular target: T2, Glutathione reductase (Saccharomyces cerevisiae S288c); experiment: Inhibition of yeast glutathione reductase at 10 uM
# [14] = molecular target: Trypanothione reductase (Trypanosoma cruzi) (UniProt P28593); experiment: Inhibition of Trypanosoma cruzi recombinant trypanothione reductase at 12.2 uM
# Sequence of Trypanothione reductase (Trypanosoma cruzi) (P28593 whole entry, looked up): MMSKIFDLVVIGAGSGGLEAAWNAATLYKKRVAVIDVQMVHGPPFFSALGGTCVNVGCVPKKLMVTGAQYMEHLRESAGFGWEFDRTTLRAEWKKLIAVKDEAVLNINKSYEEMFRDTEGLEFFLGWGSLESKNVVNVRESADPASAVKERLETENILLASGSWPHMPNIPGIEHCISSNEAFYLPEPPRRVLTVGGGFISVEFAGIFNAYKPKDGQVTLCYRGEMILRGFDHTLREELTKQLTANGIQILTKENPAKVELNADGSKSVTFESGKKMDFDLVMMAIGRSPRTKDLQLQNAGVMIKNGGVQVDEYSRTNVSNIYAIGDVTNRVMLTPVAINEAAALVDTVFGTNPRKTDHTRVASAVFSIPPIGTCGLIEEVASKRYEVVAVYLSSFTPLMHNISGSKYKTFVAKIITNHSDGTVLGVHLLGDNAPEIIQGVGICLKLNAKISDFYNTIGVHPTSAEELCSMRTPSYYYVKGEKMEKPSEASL
# T1 sequence (P28593 whole entry): as the sequence (P28593 whole entry, looked up) above
# T3 sequence (P39040 whole entry): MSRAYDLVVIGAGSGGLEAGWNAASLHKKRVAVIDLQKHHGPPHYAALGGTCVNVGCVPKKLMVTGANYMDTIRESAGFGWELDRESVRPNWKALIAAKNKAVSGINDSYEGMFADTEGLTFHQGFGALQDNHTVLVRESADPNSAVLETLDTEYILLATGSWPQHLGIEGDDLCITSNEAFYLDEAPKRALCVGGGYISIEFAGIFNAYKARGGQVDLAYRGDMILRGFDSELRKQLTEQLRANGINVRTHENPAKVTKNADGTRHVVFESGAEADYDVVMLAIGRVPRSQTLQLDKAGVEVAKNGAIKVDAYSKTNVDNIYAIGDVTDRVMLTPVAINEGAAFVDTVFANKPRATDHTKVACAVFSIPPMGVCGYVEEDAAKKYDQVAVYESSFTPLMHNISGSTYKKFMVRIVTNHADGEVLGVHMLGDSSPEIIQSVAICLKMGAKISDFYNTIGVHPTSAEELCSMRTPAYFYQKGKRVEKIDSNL
SMILES,inhibition [3] [%],inhibition of growth at 100 µM (Leishmania amazonensis [4]) [%],further results
COc1ccc2cc1Oc1ccc(cc1)C[C@H]1c3c(cc4c(c3Oc3cc5c(cc3OC)CCN(C)[C@@H]5C2)OCO4)CCN1C [CEPHARANTHINE],,,Ki (Trypanothione reductase [1]): 7.6 µM; Ki (Trypanothione reductase [2]): 51.6 µM
Cc1nccc2c1[nH]c1ccccc12,10,,
C=CC1CN2CCC1CC2C(O)c1ccnc2ccccc12 (centres undefined),18,51,
CC1=CC2c3cccc4[nH]cc(c34)C[C@H]2N(C)C1 (some centres undefined),28,70,
CC[C@H]1[C@@H]2C[C@H]3[C@@H]4N(C)c5ccccc5[C@]45C[C@@H]([C@@H]2[C@H]5O)N3[C@@H]1O [AJMALINE],12,5,
COc1ccc(-c2cc(=O)c3c(O)cc(OC)cc3o2)cc1,12,,
COc1cc(CC2NCCc3c2[nH]c2ccccc32)ccc1O (centres undefined),,,Ki (Trypanothione reductase [1]): 7 µM
O=C1CC[C@]23/C=C/C(=O)NCCCCNCCCNC(=O)/C=C\c4ccc(c2c4)O[C@@H]3C1,,,Ki (Trypanothione reductase [1]): 144 µM; Kinact [5]: 0.116 min⁻¹
CN(C)CCCn1c2ccccc2c2ccncc21,20,,
N#Cc1ccc(C2NCCc3c2[nH]c2ccccc32)cc1 (centres undefined),,,Ki (Trypanothione reductase [1]): 2 µM
N=C(N)c1ccc(OCCCCCOc2ccc(C(=N)N)cc2)cc1 [PENTAMIDINE],,86,IC50 (Leishmania amazonensis [6]): 0.29 µM
CC[C@@]12CCCN3CC[C@]4(c5cccc(OC)c5N(C(C)=O)[C@@H]4CC1)[C@H]32 [ASPIDOSPERMINE],43,89,Activity [7]: inactive; IC50 (Trypanothione reductase [1]): 90.4 µM; Ki (Trypanothione reductase [1]): 64.6 µM; IC50 (NIH3T3): 46.2 µM
Cc1nccc2c3ccccc3n(CCCN(C)C)c12,22,,
COc1ccc2c3c([nH]c2c1)C(C)=NCC3 [HARMALINE],19,,IC50 (Leishmania infantum): 119 µM
C[C@H]1[C@H]2CC[C@H]3[C@@H]4CC=C5C[C@@H](N(C)C)CC[C@]5(C)[C@H]4CC[C@]23CN1C [CONESSINE],25,97,inhibition [8]: 45%; inhibition [9]: 91%; inhibition [10]: 73%
COc1ccc2c3c(n(CCCN(C)C)c2c1)C(C)=NCC3,50,57,inhibition [7]: 6%; Ki (Trypanothione reductase [1]): 35.1 µM

SMILES,inhibition [3] [%],inhibition of growth at 100 µM (Leishmania amazonensis [4]) [%],further results
COc1ccc2c3ccnc(C)c3n(CCCN(C)C)c2c1,13,,
c1ccc2c(c1)[nH]c1cnccc12,10,,
CN(C)CCc1cn(C)c2ccc(O)cc12,9,,
CN(C)Cc1cn(C)c2ccccc12,8,,
O=c1[nH]c2c(c(=O)[nH]1)CNc1ccccc1S2 [PYRIMIDOBENZOTHIAZEPINE],10,14,
O=c1[nH]c2c(c(=O)[nH]1)Nc1ccccc1S2 [PYRIMIDOBENZOTHIAZINE],36,15,
O=c1cc(-c2ccc(O)cc2)oc2cc(O)cc(O)c12,13,,
O=C(/C=C/C=C/c1ccc2c(c1)OCO2)N1CCCCC1,11,,
COc1ccc2c(c1)[nH]c1c(C)nccc12,11,,
C[C@@H]1CN(CCCn2c3ccccc3c3ccccc32)C[C@H](C)N1,4,,
O=C(CCc1ccc(O)c(O)c1)NCCCNCCCCNCCCNC(=O)CCc1ccc(O)c(O)c1 [KUKOAMINE A],,,Ki (Trypanothione reductase [11]): 13 µM; Ki (Trypanothione reductase [12]): 1.8 µM
CN(C)c1ccc2nc3ccc(=[N+](C)C)cc-3sc2c1,,,inhibition [13]: 30%
CN(C)CCCN1c2ccccc2Sc2ccc(Cl)cc21 [CHLORPROMAZINE],,,IC50 (Trypanothione reductase [1]): 5.8 µM; Ki (Trypanothione reductase [1]): 3.2 µM; inhibition [14]: 70%
COC(=O)NC1CCc2cc(OC)c(OC)c(OC)c2-c2ccc(OC)c(=O)cc21 (centres undefined) [COLCHININE],8,6,
CN(C)CCCn1c2c(c(=O)n(CCCN(C)C)c1=O)Nc1ccccc1S2,62,11,Activity [7]: inactive; Ki (Trypanothione reductase [1]): 26.9 µM
